Experiment [1] deals with T1, DNA gyrase from E. coli (Escherichia coli, UniProt P0AES6).
T1 construct: purchased Inspiralis
Briefly: supercoiling HTS plate assay. The class given is biochemical. As to conditions: IC50 [nM] E. coli DNA gyrase. In short, it runs like this:
(§1)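 E. coli gyrase tested by supercoiling and topo IV by relaxation in high-throughput plate format. IC50 from seven inhibitor concentrations; mean of three independent measurements.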

Experiment [2] addresses T2, topo IV from E. coli (Escherichia coli, UniProt P20083).
T2 construct: purchased Inspiralis
Briefly: relaxation HTS plate assay. The class given is biochemical. The conditions noted are these: IC50 [nM] E. coli TopoIV. In short, it runs like this: as §1

For experiment [3], the system named is S. aureus ATCC 29213. Briefly: MIC broth microdilution (CLSI). The format is cell-based. The conditions noted are these: Staphylococcus aureus, ATCC29213. In short, it runs like this: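 Cation-adjusted Mueller Hinton broth 2 microdilution, 5 × 10^4 cells per well in 100 μL, three parallel replicates, plates bagged to limit evaporation; growth read as OD600 after incubation.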

In experiment [4] the test system is Enterococcus faecalis ATCC 29212. Briefly: MIC broth microdilution (CLSI). The format is cell-based, E. faecalis. The conditions noted are these: Enterococcus faecalis, ATCC29212; read-out: MIC.
Experiment [5] has as its system E. coli ATCC 25922. Nature of the experiment: MIC broth microdilution (CLSI). The class given is cell-based. The conditions noted are these: Escherichia coli, ATCC25922; read-out: MIC. In short, it runs like this: (§2)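 Growth inhibition is scored by OD600 after 18 h at 37 °C with shaking. The MIC is taken where the average OD600 increase across three replicates is under 1.5 times the background increase. Inocula are 5 × 10^4 cells per 100 μL in cation-adjusted MHBII, following CLSI serial dilution.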

For experiment [6], the system named is E. faecium ATCC 700221. Briefly: MIC broth microdilution (CLSI). The conditions noted are these: Enterococcus faecium, ATCC700221; read-out: MIC. The format is cell-based.
For experiment [7], the system named is S. aureus (MRSA) ATCC 43300. Briefly: MIC broth microdilution (CLSI). The format is cell-based. The conditions noted are these: Staphylococcus aureus. In short, it runs like this: as §2
Experiment [8] relates to S. aureus (VISA) ATCC 700699. Briefly: MIC broth microdilution (CLSI). As to conditions: Staphylococcus aureus; read-out: MIC. The format is cell-based. In short, it runs like this:
as §2

Experiment [9] has as its system A. baumannii ATCC 19606. Briefly: MIC broth microdilution (CLSI). The conditions noted are these: Acinetobacter baumannii, ATCC19606. The class given is cell-based. As for the experimental part: (§3) MICs (Tables 1 and S1–S3) were determined with a standard serial broth microdilution technique according to Clinical and Laboratory Standards Institute (CLSI) guidelines.[45] Cation-adjusted Mueller Hinton broth 2 (MHBII) was used for bacterial growth under standard laboratory conditions and for antimicrobial susceptibility tests. MHBII broth was prepared by dissolving 22 g of MHBII powder [containing beef extract (3 g), acid hydrolysate of casein (17.5 g), and starch (1.5 g); Becton Dickinson and Co.] in 1 L of water. To prepare MHBII agar, 14 g of agar (Bacto; Molar Chemicals) was added to 1 L of broth.
(§4) Bacterial strains were inoculated onto MHBII agar plates and grown overnight at 37 °C. Next, three individual colonies from each strain were inoculated into 1 mL of MHBII medium and propagated at 37 °C overnight, with agitation at 250 rpm. For Enterococcus sp., the cells were plated in brain–heart infusion [(BHI) medium] agar plates, and BHI broth was used to determine the MICs. […] The highest final DMSO concentration in the experiments was 0.64% (in the case of the 64 μg/mL concentration of the inhibitor). Following the dilutions, each well was seeded with 5 × 10^4 bacterial cells (in 100 μL final volume). Each measurement was performed in three parallel replicates, and to avoid possible edge effects in the microwell plates, the outside rows (A, H) were filled with sterile medium. Following the inoculations, the plates were covered with the lids and wrapped in polyethylene plastic bags, to minimize evaporation but to allow O2 transfer. The plates were incubated at 37 °C under continuous shaking at 150 rpm for 18 h. After incubation, the OD600 of each well was measured using a microplate reader (Synergy 2; Biotek). The MICs were defined as the antibiotic concentrations which inhibited the growth of the bacterial cultures; that is, the drug concentration where the average OD600 increment of the three technical replicates was below 1.5-fold the background OD increment.
(§5) cMIC, minimum inhibitory concentration
(§6) Bacterial strains that were used: S. aureus ATCC 29213, S. aureus (MRSA) ATCC 43300, S. aureus (VISA) ATCC 700699, E. faecalis ATCC 29212, E. faecium ATCC 700221,
(§7) E. coli ATCC 25922, P. aeruginosa ATCC 27853 (PAO1 for compounds 7l, 8b, 14), A. baumannii ATCC 17978 (ATCC 19606 for compounds 7l, 8b, 14), K. pneumoniae ATCC
(§8) Measurements were performed according to the Clinical and Laboratory Standards Institute guidelines, with three independent measurements.

For experiment [10], the system named is K. pneumoniae ATCC 13883. Nature of the experiment: MIC broth microdilution (CLSI). As to conditions: Klebsiella pneumoniae, ATCC13883; ATCC 13883 used for 7l, 8b, 14, 16b, 16c. The class given is cell-based. As to the method: as §3, §4, §5, §6, §7, §8
For experiment [11], the system named is P. aeruginosa PAO1. Nature of the experiment: MIC broth microdilution (CLSI). As to conditions: Pseudomonas aeruginosa; PAO1 used for 7l, 8b, 14, 16b, 16c. The class given is cell-based. As to the method: as §3, §4, §5, §6, §7, §8

Each structure is given as a SMILES string. Like-named read-outs stand apart in the source and are kept apart here.

T2 sequence (P0AFI2 whole entry): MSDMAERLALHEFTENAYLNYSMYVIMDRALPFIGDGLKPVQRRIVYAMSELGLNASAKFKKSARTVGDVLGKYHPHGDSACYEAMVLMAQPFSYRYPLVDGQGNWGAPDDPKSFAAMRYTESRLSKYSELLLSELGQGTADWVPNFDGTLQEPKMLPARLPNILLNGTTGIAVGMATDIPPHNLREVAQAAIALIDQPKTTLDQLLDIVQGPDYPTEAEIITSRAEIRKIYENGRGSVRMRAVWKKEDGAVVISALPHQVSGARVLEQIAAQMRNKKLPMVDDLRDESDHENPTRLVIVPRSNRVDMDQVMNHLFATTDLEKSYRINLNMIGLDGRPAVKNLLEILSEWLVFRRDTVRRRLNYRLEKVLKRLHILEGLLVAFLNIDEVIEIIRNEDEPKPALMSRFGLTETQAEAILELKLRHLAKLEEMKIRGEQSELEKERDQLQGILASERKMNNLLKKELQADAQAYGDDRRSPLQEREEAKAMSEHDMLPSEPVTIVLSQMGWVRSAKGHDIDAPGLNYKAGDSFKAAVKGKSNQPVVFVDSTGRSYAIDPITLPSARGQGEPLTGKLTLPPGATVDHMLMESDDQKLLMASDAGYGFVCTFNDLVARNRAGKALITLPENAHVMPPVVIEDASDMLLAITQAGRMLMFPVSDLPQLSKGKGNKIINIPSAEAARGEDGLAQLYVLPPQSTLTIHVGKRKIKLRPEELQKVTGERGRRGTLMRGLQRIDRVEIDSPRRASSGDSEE
T2 sequence (P20083 whole entry): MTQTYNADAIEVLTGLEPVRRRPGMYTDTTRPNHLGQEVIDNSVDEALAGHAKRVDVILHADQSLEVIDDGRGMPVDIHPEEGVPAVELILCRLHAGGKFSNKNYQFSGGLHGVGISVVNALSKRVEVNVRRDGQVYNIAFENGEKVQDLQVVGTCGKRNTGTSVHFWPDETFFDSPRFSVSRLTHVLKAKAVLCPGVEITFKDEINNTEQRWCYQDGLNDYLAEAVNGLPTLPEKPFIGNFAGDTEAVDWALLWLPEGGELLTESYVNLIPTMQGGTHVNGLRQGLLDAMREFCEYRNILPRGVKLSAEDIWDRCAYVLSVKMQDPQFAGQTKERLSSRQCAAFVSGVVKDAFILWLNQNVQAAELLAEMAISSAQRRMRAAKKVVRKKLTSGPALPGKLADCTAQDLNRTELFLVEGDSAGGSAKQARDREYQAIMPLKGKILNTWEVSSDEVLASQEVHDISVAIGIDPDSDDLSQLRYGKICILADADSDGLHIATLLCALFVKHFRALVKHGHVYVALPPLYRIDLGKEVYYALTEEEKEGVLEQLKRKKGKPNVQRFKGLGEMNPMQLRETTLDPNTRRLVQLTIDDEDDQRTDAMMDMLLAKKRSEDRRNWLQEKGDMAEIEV

In the case of `Cc1[nH]c(C(=O)Nc2nc3c(N4CC[C@H](N(C)C)C4)cc(C(=O)O)cc3s2)c(Cl)c1Cl.Cl.N` [7l, (S)-2-(3,4-Dichloro-5-methyl-1H-pyrrole-2-carboxamido)-4-(3-(dimethylamino)pyrrolidin-1-yl)benzo[d]thiazole-6-carboxylic Acid], the values for the IC50 in experiment [1] and in experiment [2] were less than 10 nM and 210 ± 80 nM, respectively. For the same molecule, the MIC in [3] (read-out: MIC) was 4 µg/mL; in experiment [3] (read-out: MIC [µg/mL](S. aureus ATCC 29213)), 4 µg/mL; in experiment [4] it was 1 µg/mL; in experiment [5] it was more than 64 µg/mL; in [6], 0.25 µg/mL; in experiment [7] (read-out: MIC) it was 2 µg/mL. For the same molecule, the MIC was 2 µg/mL in experiment [7] (read-out: MIC [µg/mL](S. aureus MRSA ATCC4330)); 0.5 µg/mL in [8]; more than 64 µg/mL in experiment [9] (ATCC 19606 used for 7l, 8b, 14, 16b, 16c, read-out: MIC); more than 64 µg/mL in [9] (read-out: MIC [µg/mL] (A. baumannii ATCC 19606 for compounds 7l, 8b, 14)); more than 64 µg/mL in [10]; more than 64 µg/mL in [11].

(Values after publication PMC10041525, “New Dual Inhibitors of Bacterial Topoisomerases with Broad-Spectrum Antibacterial Activity and In Vivo Efficacy against Vancomycin-Intermediate Staphylococcus aureus” (Journal of Medicinal Chemistry, 2023).)
